According to patent publication US20230407243A1, “GENETIC PLATFORM TO INVESTIGATE THE FUNCTIONS OF BACTERIAL DRUG EFFLUX PUMPS” (priority 2022, published 2023):
Where two headings read alike, the source gives them in different places.

What was measured:
Format in all cases: cell-based, Escherichia coli
E. coli EKO-35 = experiment: microbe, parasite or virus in culture; conditions: for Fold change of MICs: EKO-35 compared to EKO-35 (reference); for MIC: Escherichia coli, EKO35, technical duplicate
Summary of the method: (§1)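 Growth inhibition was scored by OD600, with readings taken before incubation subtracted from those after. Cells were grown in MHB II at 37 °C for 18 h with aeration, against duplicate 2-fold compound series and DMSO-only wells. Inoculum: PBS suspension at OD600 ~1.0 diluted 1/2000.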

E. coli ΔtolC = experiment: microbe, parasite or virus in culture; conditions: for MIC: Escherichia coli, 18 h, read-out: Minimum Inhibitory Concentration, ΔtolC; for Minimum inhibitory concentration (MIC), ΔtolC: Table 10, without pore, technical duplicate
Summary of the method: as §1

[1] = tested on: wild-type E. coli K-12 str. BW25113; experiment: microbe, parasite or virus in culture; conditions: Escherichia coli, BW25113, technical duplicate
Summary of the method: as §1

EKO-35 araC::acrBD408A = experiment: MIC susceptibility profiling, efflux platform; conditions: for MIC: Escherichia coli, Table 13B, non-porinated, technical duplicate, read-out: Minimum Inhibitory Concentration, EKO-35 araC::acrBD408A
Summary of the method: as §1

EKO-35 araC::acrB = experiment: MIC susceptibility profiling, efflux platform; conditions: for MIC: Escherichia coli, Table 13A, non-porinated, technical duplicate, read-out: Minimum Inhibitory Concentration, EKO-35 araC::acrB
Summary of the method: as §1

EKO-35 araC::acrD = experiment: MIC susceptibility profiling, efflux platform; conditions: for MIC: Escherichia coli, Table 13A, non-porinated, technical duplicate, read-out: Minimum Inhibitory Concentration, EKO-35 araC::acrD
Summary of the method: as §1

EKO-35 araC::acrEF = experiment: MIC susceptibility profiling, efflux platform; conditions: for MIC: Escherichia coli, Table 13A, non-porinated, technical duplicate, read-out: Minimum Inhibitory Concentration, EKO-35 araC::acrEF
Summary of the method: as §1

EKO-35 araC::emrAB = experiment: MIC susceptibility profiling, efflux platform; conditions: for MIC: Escherichia coli, Table 13B, non-porinated, technical duplicate, read-out: Minimum Inhibitory Concentration, EKO-35 araC::emrAB
Summary of the method: as §1

EKO-35 araC::emrKY = experiment: MIC susceptibility profiling, efflux platform; conditions: for MIC: Escherichia coli, Table 13B, non-porinated, technical duplicate, read-out: Minimum Inhibitory Concentration, EKO-35 araC::emrKY
Summary of the method: as §1

EKO-35 araC::macAB = experiment: MIC susceptibility profiling, efflux platform; conditions: for MIC: Escherichia coli, Table 13B, non-porinated, technical duplicate, read-out: Minimum Inhibitory Concentration, EKO-35 araC::macAB
Summary of the method: as §1

EKO-35 araC::mdtBC = experiment: MIC susceptibility profiling, efflux platform; conditions: for MIC: Escherichia coli, Table 13B, non-porinated, technical duplicate, read-out: Minimum Inhibitory Concentration, EKO-35 araC::mdtBC
Summary of the method: as §1

EKO-35 araC::mdtEF = experiment: MIC susceptibility profiling, efflux platform; conditions: for MIC: Escherichia coli, Table 13A, non-porinated, technical duplicate, read-out: Minimum Inhibitory Concentration, EKO-35 araC::mdtEF
Summary of the method: as §1

[2] = tested on: EKO-35 araC::mexCD (MexCD from P. aeruginosa); experiment: MIC susceptibility profiling, efflux platform; conditions: for MIC: Table 13B, non-porinated, technical duplicate, read-out: Minimum Inhibitory Concentration, EKO-35 araC::mexCD
Summary of the method: as §1

wild-type (WT) K-12-Pore = experiment: microbe, parasite or virus in culture; conditions: Escherichia coli, technical duplicate
Summary of the method: (§2)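 MIC values come from background-corrected OD600 readings (pre-incubation OD subtracted) after 18 h at 37 °C and 900 rpm in MHB II. Compounds were tested in duplicate as 2-fold dilutions. The inoculum came from 18 h LB cultures adjusted to OD600 ~1.0 and diluted 1/2000, and the pore-bearing strains were vancomycin-checked beforehand.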

ΔtolC-Pore = experiment: microbe, parasite or virus in culture; conditions: for MIC: Escherichia coli, 18 h, read-out: Minimum inhibitory concentration, ΔtolC-Pore; for Minimum inhibitory concentration (MIC), Pore ΔtolC: Table 10, with pore, technical duplicate
Summary of the method: as §2

EKO-35 araC::acrEF Pore = experiment: MIC susceptibility profiling, porinated efflux platform; conditions: for MIC: Escherichia coli, Table 14A, porinated, technical duplicate, read-out: Minimum inhibitory concentration, EKO-35 araC::acrEF Pore
Summary of the method: as §2

EKO-35 araC::emrKY Pore = experiment: as above; conditions: for MIC: Escherichia coli, EKO-35 araC::emrKY Pore, technical duplicate, read-out: Minimum inhibitory concentration
Summary of the method: as §2

EKO-35 araC::macAB Pore = experiment: as above; conditions: for MIC: Escherichia coli, EKO-35 araC::macAB Pore, technical duplicate, read-out: Minimum inhibitory concentration
Summary of the method: as §2

EKO-35 araC::mdtEF Pore = experiment: as above; conditions: for MIC: Escherichia coli, Table 14A, porinated, technical duplicate, read-out: Minimum inhibitory concentration, EKO-35 araC::mdtEF Pore
Summary of the method: as §2

[3] = Table 10, without pore, read-out: Minimum inhibitory concentration (MIC), EKO-35
[4] = Table 13A, non-porinated, read-out: Minimum Inhibitory Concentration, EKO-35
[5] = Table 10, without pore, read-out: Minimum inhibitory concentration (MIC), K-12
[6] = Table 13A, non-porinated, read-out: Minimum Inhibitory Concentration, K-12
[7] = Table 10, with pore, read-out: Minimum inhibitory concentration (MIC), Pore K-12
[8] = Table 14A, porinated, read-out: Minimum inhibitory concentration, K-12 (WT)-Pore

With `CO[C@H]1/C=C/O[C@@]2(C)Oc3c(C)c(O)c4c(O)c(c(/C=N/N5CCN(C)CC5)c(O)c4c3C2=O)NC(=O)/C(C)=C\C=C\[C@H](C)[C@H](O)[C@@H](C)[C@@H](O)[C@@H](C)[C@H](OC(C)=O)[C@@H]1C` [rifampicin] the “Fold change of MICs” value (E. coli EKO-35) was 1 fold, the MIC (E. coli EKO-35; [3]) was 6.25 µg/mL and the MIC (E. coli EKO-35; [4]) was 6.25 µg/mL. The MIC (E. coli ΔtolC) was 6.25 µg/mL, the “Minimum inhibitory concentration (MIC), ΔtolC” value (E. coli ΔtolC) was 6.25 µg/mL and the MIC [1, 5] was 12.5 µg/mL. The MIC [1, 6] was 12.5 µg/mL, the MIC (EKO-35 araC::acrBD408A) was 3.12 µg/mL and the MIC (EKO-35 araC::acrB) was 6.25 µg/mL. It also gave an MIC (EKO-35 araC::acrD) of 6.25 µg/mL, an MIC (EKO-35 araC::acrEF) of 6.25 µg/mL and an MIC (EKO-35 araC::emrAB) of 6.25 µg/mL. For the same compound, the MIC (EKO-35 araC::emrKY) was 6.25 µg/mL, the MIC (EKO-35 araC::macAB) was 6.25 µg/mL and the MIC (EKO-35 araC::mdtBC) was 6.25 µg/mL. For the same compound, the MIC (EKO-35 araC::mdtEF) was 6.25 µg/mL, the MIC [2] was 3.12 µg/mL and the MIC (wild-type (WT) K-12-Pore; [7]) was 0.781 µg/mL. The MIC (wild-type (WT) K-12-Pore; [8]) was 0.781 µg/mL, the MIC (ΔtolC-Pore) was 0.391 µg/mL and the “Minimum inhibitory concentration (MIC), Pore ΔtolC” value (ΔtolC-Pore) was 0.391 µg/mL. It also gave an MIC (EKO-35 araC::acrEF Pore) of 0.391 µg/mL, an MIC (EKO-35 araC::emrKY Pore) of 0.391 µg/mL and an MIC (EKO-35 araC::macAB Pore) of 0.391 µg/mL. The MIC (EKO-35 araC::mdtEF Pore) was 0.391 µg/mL.
In the case of `CN(C)c1ccc(O)c2c1C[C@H]1C[C@H]3[C@H](N(C)C)C(O)=C(C(N)=O)C(=O)[C@@]3(O)C(O)=C1C2=O` [minocycline], the “Fold change of MICs” value (E. coli EKO-35) is reported as 1 fold, the MIC (E. coli EKO-35; [3]) is reported as 0.049 µg/mL and the MIC (E. coli EKO-35; [4]) is reported as 0.049 µg/mL. The MIC (E. coli ΔtolC) was 0.098 µg/mL, the “Minimum inhibitory concentration (MIC), ΔtolC” value (E. coli ΔtolC) was 0.098 µg/mL and the MIC [1, 5] was 0.781 µg/mL. For the same compound, the MIC [1, 6] was 0.781 µg/mL, the “Fold change of MICs” value (EKO-35 araC::acrBD408A; EKO-35 araC::acrBD408A compared to EKO-35) was 1 fold and the MIC (EKO-35 araC::acrBD408A) was 0.049 µg/mL. The “Fold change of MICs” value (EKO-35 araC::acrB; EKO-35 araC::acrB compared to EKO-35) was 8 fold, the MIC (EKO-35 araC::acrB) was 0.391 µg/mL and the “Fold change of MICs” value (EKO-35 araC::acrD; EKO-35 araC::acrD compared to EKO-35) was 2 fold. For the same compound, the MIC (EKO-35 araC::acrD) was 0.098 µg/mL, the “Fold change of MICs” value (EKO-35 araC::acrEF; EKO-35 araC::acrEF compared to EKO-35) was 2 fold and the MIC (EKO-35 araC::acrEF) was 0.098 µg/mL. The “Fold change of MICs” value (EKO-35 araC::emrAB; EKO-35 araC::emrAB compared to EKO-35) was 1 fold, the MIC (EKO-35 araC::emrAB) was 0.049 µg/mL and the “Fold change of MICs” value (EKO-35 araC::emrKY; EKO-35 araC::emrKY compared to EKO-35) was 1 fold. The MIC (EKO-35 araC::emrKY) was 0.049 µg/mL, the “Fold change of MICs” value (EKO-35 araC::macAB; EKO-35 araC::macAB compared to EKO-35) was 1 fold and the MIC (EKO-35 araC::macAB) was 0.049 µg/mL. The “Fold change of MICs” value (EKO-35 araC::mdtBC; EKO-35 araC::mdtBC compared to EKO-35) was 1 fold, the MIC (EKO-35 araC::mdtBC) was 0.049 µg/mL and the “Fold change of MICs” value (EKO-35 araC::mdtEF; EKO-35 araC::mdtEF compared to EKO-35) was 1 fold. For the same compound, the MIC (EKO-35 araC::mdtEF) was 0.049 µg/mL, the “Fold change of MICs” value ([2]; EKO-35 araC::mexCD compared to EKO-35) was 1 fold and the MIC [2] was 0.049 µg/mL. It also gave an MIC (wild-type (WT) K-12-Pore; [7]) of 0.781 µg/mL, an MIC (wild-type (WT) K-12-Pore; [8]) of 0.781 µg/mL and an MIC (ΔtolC-Pore) of 0.098 µg/mL. For the same compound, the “Minimum inhibitory concentration (MIC), Pore ΔtolC” value (ΔtolC-Pore) was 0.098 µg/mL, the “Fold changes of MICs” value (EKO-35 araC::acrEF Pore; EKO-35 araC::acrEF Pore compared to EKO-35-Pore) was 2 fold and the MIC (EKO-35 araC::acrEF Pore) was 0.098 µg/mL. For the same compound, the “Fold changes of MICs” value (EKO-35 araC::emrKY Pore; EKO-35 araC::emrKY Pore compared to EKO-35-Pore) was 1 fold, the MIC (EKO-35 araC::emrKY Pore) was 0.049 µg/mL and the “Fold changes of MICs” value (EKO-35 araC::macAB Pore; EKO-35 araC::macAB Pore compared to EKO-35-Pore) was 1 fold. The MIC (EKO-35 araC::macAB Pore) was 0.049 µg/mL, the “Fold changes of MICs” value (EKO-35 araC::mdtEF Pore; EKO-35 araC::mdtEF Pore compared to EKO-35-Pore) was 2 fold and the MIC (EKO-35 araC::mdtEF Pore) was 0.098 µg/mL.
